The target in one series is SARS-CoV-2 nsp14 (Severe acute respiratory syndrome coronavirus 2, UniProt P0DTD1). To be noted: nsp14, 50 µM compound vs DMSO.
For series [1], the target named is SARS-CoV-2 RNA polymerase complex (nsp12/nsp7/nsp8) (Severe acute respiratory syndrome coronavirus 2, UniProt P0DTD1). The series can be described thus: SARS-CoV-2 RdRp primer extension assay. Format: biochemical. To be noted: 14-nucleotide RNA product on gel.
Series [2] has as its system SARS-CoV-2. The series can be described thus: microbe, parasite or virus in culture. Type of series: cell-based. To be noted: for EC50: read-out: Antiviral Activity against SARS-CoV-2 Vero EC50; for EC90: read-out: Antiviral Activity against SARS-CoV-2 Vero EC90; for inhibition at 20 µM: read-out: inhibition of SARS-CoV-2 in the initial antiviral evaluation assay.
Series [3] deals with SARS-CoV-2. As to conditions: Vero E6 cells ref 31; cited from earlier work.
The next series has as its target SARS-CoV-2 nsp12 (RdRp) (Severe acute respiratory syndrome coronavirus 2, UniProt P0DTD1). As to conditions: nsp12, 50 µM compound vs DMSO.
The subject of a further series is SARS-CoV-2 pseudovirus. The series can be described thus: microbe, parasite or virus in culture. Format: cell-based. To be noted: for inhibition at 1.1 µM / inhibition at 3.3 µM / inhibition at 10 µM / inhibition at 30 µM: Severe acute respiratory syndrome-related coronavirus, Huh7.5 cells, vs untreated sample, read-out: SARS-CoV-2 Pseudovirus Entry Inhibition (%).

For series [4], the system named is SARS-CoV-2. The series is described as follows: Time-of-drug-addition assay in Vero cells. Type of series: cell-based. As to conditions: compound at EC90, Vero cells, MOI 0.1.
Another series concerns SARS-CoV-2 3CL. As to conditions: enzyme-inhibition experiments ref 31; read-out: IC50, antiprotease activity against SARS-CoV-2 3CL; cited from earlier work.
Series [5] is described as follows: Cytotoxicity in Calu3 cells. To be noted: human.
In series [6] the target is SARS-CoV-2 nsp5 (3CL protease) (Severe acute respiratory syndrome coronavirus 2, UniProt P0DTD1). As to conditions: nsp5, 50 µM compound vs DMSO.
Series [7] relates to SARS-CoV-2. The series is described as follows: SARS-CoV-2 antiviral activity assay in Calu-3 cells. Type of series: cell-based.
Series [8] deals with SARS-CoV-2 3CL protease (nsp5). The arrangement: method as in PMID 32746637. As to conditions: previous report ref 29; read-out: IC50, enzymatic activity of SARS-CoV-2 3CL protease (nsp5); cited from earlier work.
The nature of series [9]: MTS cytotoxicity assay in Vero cells. To be noted: African green monkey. (In general: Tetrazolium dyes change colour on reduction, which living cells bring about.)
The mark [10] stands for this setting: Severe acute respiratory syndrome coronavirus 2, 48 h, Vero cells, MOI 0.1, virus yield 2 days post-treatment.
The mark [11] stands for this setting: Severe acute respiratory syndrome coronavirus 2, Vero.
Where [12] appears, read: Severe acute respiratory syndrome coronavirus 2, human Calu-3 cells, read-out: Antiviral Activity against SARS-CoV-2 Calu-3 EC50.
Where [13] appears, read: Severe acute respiratory syndrome coronavirus 2, human Calu-3 cells, read-out: Antiviral Activity against SARS-CoV-2 Calu-3 EC90.
Where [14] appears, read: Severe acute respiratory syndrome coronavirus 2, Vero, 48 h.

Molecules are shown by their SMILES. Where two headings read alike, the source gives them in different places.

By ΔTm is commonly meant the shift of the melting midpoint relative to a reference. Broadly, the EC50 is the midpoint of the concentration-response curve. One may read the EC90 as the concentration needed for an effect of 90%. In general, inhibition refers to the relative decrease from the control value, in per cent. What is called IC50 is the concentration at which inhibition is half-maximal. The CC50 is the concentration at which the toxic effect on the cells reaches its halfway point.

For the molecule `O=c1cc(-c2ccccc2)oc2cc(O)c(O)c(O)c12` [Baicalein, baicalein], the ΔTm at SARS-CoV-2 nsp14 worked out at 1.5 °C. The “inhibition of SARS-CoV-2 RdRp activity (in words)” value in series [1] was “more potent inhibition of SARS-CoV-2 RdRp activity compared to baicalin”. Besides, in the series with SARS-CoV-2 [2] (setting [10]), the EC50 was 4.5 ± 0.2 µM and the EC90 was 7.6 ± 0.3 µM. Moreover, in the series on SARS-CoV-2 [2] (setting [11]), the inhibition at 20 µM was 99.8%. Also, the EC50 with SARS-CoV-2 [3] was 2.94 µM. Also, the thermal shift (ΔTm) on SARS-CoV-2 nsp12 (RdRp) is 3.9 °C. For the same molecule, in the series on SARS-CoV-2 pseudovirus, the “inhibitory activity on SARS-CoV-2 cell entry (in words)” value is “no inhibitory activity”, the inhibition at 1.1 µM was -2%, the inhibition at 3.3 µM is -1.9% and the inhibition at 10 µM was found to be 3.9%. For the same molecule, the inhibition at 30 µM in the series on SARS-CoV-2 pseudovirus was 14.6%. Further, the “time of addition post-infection up to which replication is significantly inhibited” value with SARS-CoV-2 [4] is “up to 8 h”. Also, the IC50 in the series on SARS-CoV-2 3CL is 0.94 µM. In series [5] (Calu3 cells), this molecule had a cytotoxic concentration (CC50) of 91 ± 0.05 µM. Moreover, the thermal shift (ΔTm) in [6] is 0.9 °C. For the same molecule, the half-maximal effective concentration (EC50) in the series with SARS-CoV-2 [7] (setting [12]) was determined as 1.2 ± 0.03 µM. Moreover, in the series with SARS-CoV-2 [7] (setting [13]), the EC90 is 6.2 ± 0.04 µM.

`O=C(O)[C@H]1O[C@@H](Oc2cc3oc(-c4ccccc4)cc(=O)c3c(O)c2O)[C@H](O)[C@@H](O)[C@@H]1O` [Baicalin, baicalin]: the “inhibition of SARS-CoV-2 RdRp activity (in words)” value in series [1] was “inhibit the activity of the SARS-CoV-2 RdRp”. Also, in the series on SARS-CoV-2 [2] (setting [10]), the half-maximal effective concentration (EC50) was 9 ± 0.08 µM and the concentration for an effect of 90% (EC90) was 15.8 ± 0.2 µM. Moreover, in the series on SARS-CoV-2 [2] (setting [11]), the inhibition at 20 µM worked out at 98%. Moreover, in the series on SARS-CoV-2 [3], the concentration giving a half-maximal response (EC50) is 27.9 µM. Further, in [8], the half-inhibitory concentration (IC50) was 34.7 µM. Also, in the series with SARS-CoV-2 pseudovirus, the “inhibitory activity on SARS-CoV-2 cell entry (in words)” value was “no inhibitory activity”, the inhibition at 1.1 µM is -12.1%, the inhibition at 3.3 µM was -11.9% and the inhibition at 10 µM is -6.6%. In addition, the inhibition at 30 µM in the series with SARS-CoV-2 pseudovirus was -3.3%. For the same molecule, in the series on SARS-CoV-2 [4], the “time of addition post-infection up to which replication is significantly inhibited” value is “up to 6 h”. The IC50 in the series with SARS-CoV-2 3CL was 6.41 µM. This molecule also came in with a 50% cytotoxic concentration (CC50) at 4 days in series [9] of over 100 µM. The CC50 in [5] was over 100 µM. In addition, the concentration giving a half-maximal response (EC50) in the series with SARS-CoV-2 [7] (setting [12]) turned out to be 8 ± 0.11 µM. The EC90 in the series with SARS-CoV-2 [7] (setting [13]) amounted to 15.1 ± 0.2 µM.

Consider `CCC(CC)COC(=O)[C@H](C)N[P@](=O)(OC[C@H]1O[C@@](C#N)(c2ccc3c(N)ncnn23)[C@H](O)[C@@H]1O)Oc1ccccc1` [Remdesivir, reference compound], for which the EC50 in the series with SARS-CoV-2 [2] (setting [14]) is 1 ± 0.1 µM; in the series on SARS-CoV-2 [7] (Severe acute respiratory syndrome coronavirus 2, Calu-3, read-out: Antiviral Activity against SARS-CoV-2 Calu-3 EC50), 0.14 ± 0.02 µM. In addition, the 90% effect concentration (EC90) worked out at 3.3 ± 0.3 µM in the series with SARS-CoV-2 [2] (setting [14]) and 0.5 ± 0.03 µM with SARS-CoV-2 [7] (Severe acute respiratory syndrome coronavirus 2, Calu-3, read-out: Antiviral Activity against SARS-CoV-2 Calu-3 EC90). The CC50 in [5] was over 100 µM.

The record behind these values is article PMC8143456 (Microorganisms, 2021).
